No end group written: not given here.
Columns and labels:
[1] = tested on: 3T3 A31-714 Clone 4 cells; experiment: Cell growth promoting activity using 3T3 cells (3H-thymidine uptake), Example 25; format: cell-based, mouse; conditions: 3H-thymidine uptake into 3T3 A31-714 Clone 4; 100% is the maximum uptake of the 80-residue betacellulin
Protocol: The cell growth promoting activity was assayed by means of the ^3H-thymidine uptake into stationary 3T3 A31-714 Clone 4 (International Journal of Cancer, 12:463 (1973)) as described in Molecular Cell Biology, 8:588 (1988).
100 μL 3T3 A31-714 Clone 4 suspended to 1000 cells/mL using Dulbecco's modified Eagle MEM medium containing 5% bovine serum were seeded to 96 well plates and cultured for a day at 37° C. in carbon dioxide gas incubators (5% carbon dioxide gas, 95% air). 75 μL of supernatant was taken, and 100 μL of serum-free Dulbecco's modified Eagle MEM medium was added to adjust the serum concentration to 1%. Two more days of culture was followed by the addition of varying concentrations of the hBTC50, Mutein A, or Mutein B prepared in the above examples. 16 hours after these had been added, ^3H-thymidine (Amersham Pharmacia Biotech) was added in an amount of 0.25 μCi/well, after 4 hours the cells were washed 3 times with PBS, 100 μL of 5% SDS was added, and the cells were lysed. The cell lysate was transferred to scintillation vials, 1 mL of Scintillator A (Wako Pure Chemicals) was added, and the uptake of ^3H-thymidine into the cellwas assayed with a scintillation counter.

[2] = tested on: AR42J cells; experiment: β cell differentiation promoting activity using AR42J cells (anti-insulin immunofluorescence), Example 26; format: cell-based; conditions: 5 days incubation; for Differentiation into insulin-producing β cells (stained cells under fluorescent microscope): anti-insulin antibody/FITC staining; for Incidence of insulin-producing cells: comparison between the proteins
Protocol: Cells of the AR42J cell line derived from pancreatic cancer induced by chemical carcinogens (Christophe, Am. J. Physiol., 266: G963 (1994)) were suspended to a concentration of 10^5 cells/mL in Dulbecco's modified Eagle MEM medium containing 10% fetal calf serum and one of hBTC50, Mutein A, Mutein B, or the 80-residue betacellulin (hBTC80) prepared in accordance with the method in Japanese Unexamined Patent Application (Kokai) H10-191989. 500 μL of these suspensions was inoculated on chamber slides and incubated for 5 days at 37° C. in carbon dioxide gas incubators (5% carbon dioxide gas, 95% air). After 5 days, the cells were washed once with PBS, fixed in 10% formaldehyde, and treated for 5 min with 0.1% Triton X-100. Block Ace (Snow Brand, Japan) was then added for 40 minutes of blocking at room temperature. Anti-insulin antibodies (by Advanced Immunochemicals) diluted with 10% Block Ace were added, and reacted for 40 minutes at room temperature. 0.1% Triton X-100 was added, the reaction solution was allowed to stand for 5 minutes at room temperature, and the cells were then washed three times with PBS. FITC (fluorescein isothiocyanate) labeled anti-mouse IgG antibodies (Cappel) diluted with 10% Block Ace were added, and a reaction was brought about for 40 minutes. 0.1% Triton X-100 was added, the reaction solution was allowed to stand for 5 minutes, the cells were then washed three times with PBS, and they were then observed under a fluorescent microscope.

[3] = tested on: PLAP expression AR42J cells; experiment: β cell differentiation promoting activity using PLAP expression AR42J cells (AR71-104 clone), Example 27; format: cell-based; conditions: 5 days, A405, 100% is the maximum absorbance when hBTC50 was added
Protocol: The differentiation promoting activity into β cells was also determined using AR42J cells transformed with the vector having alkaline phosphatase which had been ligated as a reporter downstream of the insulin promoter. Specifically, cells which have differentiated into β cells by addition of betacellulin produce alkaline phosphatase. As a result, by assaying the alkaline phosphatase activity, the differentiation promoting activity into β cells can be quantitatively assayed.
Cells of each clone were seeded on 24-well plates and cultured for 4 days with and without the addition of 20 ng/mL 80-residue BTC, the supernatant was collected and heat treated for 30 minutes at 65° C., and the alkaline phosphatase activity in the media was then assayed. Clones showing increased alkaline phosphatase activity with the addition of 80-residue betacellulin were selected. The AR71-104 clone was used below.
PLAP expression AR42J cells constructed in 3-2) were suspended to a concentration of 3×10^4 cells/mL in Dulbecco's modified Eagle MEM medium containing 10% fetal calf serum and on of varying concentrations of the hBTC50 or Mutein A or B prepared above. […] The samples were held for 10 minutes at 37° C., and 10 μL of 20 mg/mL p-nitrophenylphosphoric acid (Sigma) was added, a reaction was brought about for 16 hours at 37° C., and the absorbance at 405 nm (A405) was determined.

Substance	cell growth promoting activity ED50 [1] [nM]	Differentiation into insulin-producing β cells (stained cells under fluorescent microscope) [2]	Incidence of insulin-producing cells [2]	activity inducing differentiation to β cells ED50 [3] [nM]
Mutein A: hBTC50 with 3 amino acids (Asn, Pro, Ser) of the heregulin sequence inserted between Cys3-Cys4; SEQ ID NO: 44 (RKGHFSRCPKQYKHYCIKGRCRFVVAEQNPSTPSCVCDEGYIGARCERVDLFY; ends and bridges not checked; cysteine pairing not given here)	0.6	cells which had differentiated into insulin-producing β cells, were found	no differences in the incidence of insulin-producing cells	0.5
Mutein B: hBTC50 in which seven N terminal residues were substituted with five corresponding EGF residues; SEQ ID NO: 45 (NSDSECPKQYKHYCIKGRCRFVVAEQTPSCVCDEGYIGARCERVDLFY; ends and bridges not checked; cysteine pairing not given here)	>10.0	cells which had differentiated into insulin-producing β cells, were found	no differences in the incidence of insulin-producing cells	0.7

Source: patent US6825165B1, “Betacellulin modification” (Takeda Chemical Industries, Ltd., priority 1998, dated 2004)
